Results: patent publication US9925235B2, “Tilapia piscidins for use in enhancement of wound healing” (Academia Sinica, priority 2015, dated 2018)

What was measured:
[1] = test system: Hs-68 human foreskin fibroblast cell line; assay type: cell-based
Description: An MRSA strain commonly associated with human wound infections was selected to generate a polymicrobial solution. The MRSA strain is a clinical isolate from stool obtained from Taipei City Hospital (Heping Fuyou branch). The strain was identified by routine laboratory methods and stored in 20% (vol/vol) glycerol at −80° C. Tryptic Soy Broth (TSB) was used as the culture medium. HaCaT human keratinocyte cell line and Hs-68 human foreskin fibroblast cell line were grown in DMEM containing 10% (v/v) FBS, 0.37% (w/v) NaHCO3, penicillin (100 unit/ml), streptomycin (100 μg/ml), 0.1 mM NEAA, and 1 mM sodium pyruvate at 37° C. in a humidified incubator under 5% CO2 and 95% air. The cells were harvested at ca. 90% confluence (ca. 10^6 cells/10-cm dish). Balb/c female mice were used for the experiments. All mice were housed in cages under specific pathogen-free conditions, and given water and standard laboratory chow ad libitum during the experiments. All animal handing procedures were in accordance with National Taiwan Ocean University (NTOU) guidelines. All procedures were approved by the Animal Care and Use Committee of NTOU.
Cells were cultured at a density of 5×10^4 cells per well in flat-bottomed 96-well plates. […] Cell proliferation was measured by neutral red, LDH, and MTT assay, according to the manufacturer's instructions. […]

[2] = test system: MRSA; test: Mouse model of MRSA sepsis, TP4; assay type: in vivo, Balb/c mice
Description: Female Balb/c mice (6-8 weeks old) were injected intraperitoneally with 10^6 CFU MRSA per mouse. Ten minutes after MRSA injection, mice were injected intraperitoneally with vancomycin (0.01 mg/g mouse body weight), methicillin (0.01 mg/g mouse body weight), or TP4 (0.005 mg/g mouse body weight). In a second set of experiments, mice were given intraperitoneal injections of TP4 (0.005 mg/g mouse body weight) at 10, 60, 120, or 180 min after MRSA injection. Survival rate and status were recorded every 24 h for up to 192 h. To examine bacterial dissemination, mice were sacrificed at 48 h after injection with antibiotics or TP4, and the bacterial numbers in blood, peritoneum, spleen, liver, and mesenteric lymph nodes were recorded. Colony counts from the diluted bacterial solutions were expressed relative to those at the start of treatment. These experiments consisted of four groups, and each group contained 10 mice.
Infected mice were untreated, or treated with TP4, methicillin, or vancomycin via i.p. injection. Bacterial numbers in blood, peritoneum, spleen, liver, and mesenteric lymph nodes were subsequently recorded. Colony counts from the diluted bacterial solutions are expressed relative to those at the start of treatment. Each value represents the mean value from three determinations±standard deviation (SD).

[3] = test system: EGF, TGF-β, VEGF gene expression; test: Real-time PCR of cell proliferation genes and histology of infected wounds, TP4; assay type: in vivo, mice
Excerpt: Adult mice were infected with MRSA, and treated with TP4 or antibiotics, while controls were infected but untreated. On the indicated days, total RNA was isolated from the wound and reverse transcribed for use in real-time qPCR analysis of EGF (FIG. 10A), TGF-β (FIG. 10B), and VEGF (FIG. 10C) gene expression. (r=3; n=6.) Values with different letters show significant differences (P<0.05), as determined by ANOVA.
Tracings were taken immediately after injury. For uncontaminated wounds, wound size was determined every second day. For contaminated wounds, mice were euthanized at days 3, 5, or 19, and tracings of the wound edges were made. Wound areas were determined using the Macintosh Adobe Photoshop program, Histogram Analysis. The percentage of wound contraction was calculated as follows: % Wound contraction=(A0−At)/A0×100, where A0 is the original wound area, and at is the area of wound at the time of biopsy, accordingly. Cell proliferation gene expression was performed by real-time PCR, using the methods described above.
Skin tissues were removed and fixed as previously described. In brief, the cryosections were fixed with 4% formaldehyde, and the tissue samples were stained with VEGF. IHC was analyzed by three independent investigators. Images were taken using a BX-51 microscope (Olympus, Japan). ELISA was performed as previously described.

[4] = 48 hours after the last treatment

Tilapia piscidin 4 (FIHHIIGGLFSAGKAIHRLIRRRRR; listed as Oreochromis niloticus) [TP4]
cytotoxic effects [1]: did not exhibit cytotoxic effects | cell proliferation ([1]; Hs-68 cells, low doses, 48 h): significantly increased | Mean ± SD count, Blood [2, 4]: 0^A CFU/mL | Mean ± SD count, Liver [2, 4]: 2.4 × 10^4 ± 1 × 10^6A CFU/mL | Mean ± SD count, Mesenteric lymph nodes [2, 4]: 6 × 10^5 ± 1 × 10^5A CFU/mL | Mean ± SD count, Peritoneum [2, 4]: 1 × 10^6 ± 1 × 10^4A CFU/mL | Mean ± SD count, Spleen [2, 4]: 3 × 10^6 ± 1.2 × 10^6A CFU/mL | survival rate ([2]; 8 days after MRSA infection, i.p. 10 min after MRSA, TP4 0.005 mg/g, vancomycin and methicillin 0.01 mg/g): 100% | bacterial burden in organs vs untreated controls ([2]; P<0.05): significantly reduced the bacterial burden in all examined organs | survival rate ([2]; TP4 0.005 mg/g injected 10 min after MRSA): 100% | survival rate ([2]; TP4 0.005 mg/g injected 60 min after MRSA): 80% | survival rate ([2]; TP4 0.005 mg/g injected 120 min after MRSA): 60% | survival rate ([2]; TP4 0.005 mg/g injected 180 min after MRSA): 50% | % lethality ([2]; monitored for 2 day after injection, MRSA 10^6 CFU i.p.): 0^A % | epidermal regeneration, histological examination of biopsies ([3]; TP4-treated wounds): complete and architecturally normal epidermal regeneration | gene expression of EGF ([3]; wound tissue, 3 days, vs control and vancomycin-treated mice): enhanced gene expression | gene expression of TGF ([3]; wound tissue, 7 days, vs control and vancomycin-treated mice): enhanced gene expression | gene expression of VEGF ([3]; wound tissue, 14 days, vs control and vancomycin-treated mice): enhanced gene expression
